According to paper doi:10.1101/2022.12.28.522074v1, “Redesigning methionyl-tRNA synthetase for β-methionine activity with adaptive landscape flattening and experiments” (biorxiv, 2022):
Numbering of substitutions follows the chain as printed. Where two headings read alike, the source gives them in different places.

Columns and labels:
Test in all cases: intrinsic fluorescence titration at equilibrium
Type in all cases: binding
[1] = target: T1, MetRS M547 (His-tagged monomeric E. coli MetRS) (Escherichia coli, UniProt P00959, I298C/L14M)
T1 construct: gene metG; M547: C-terminally truncated monomeric fragment (about 547 residues), His-tagged, pET15blpa, expressed in E. coli BLR(DE3)
T1 sequence (P00959 2-548 L14M/I298C): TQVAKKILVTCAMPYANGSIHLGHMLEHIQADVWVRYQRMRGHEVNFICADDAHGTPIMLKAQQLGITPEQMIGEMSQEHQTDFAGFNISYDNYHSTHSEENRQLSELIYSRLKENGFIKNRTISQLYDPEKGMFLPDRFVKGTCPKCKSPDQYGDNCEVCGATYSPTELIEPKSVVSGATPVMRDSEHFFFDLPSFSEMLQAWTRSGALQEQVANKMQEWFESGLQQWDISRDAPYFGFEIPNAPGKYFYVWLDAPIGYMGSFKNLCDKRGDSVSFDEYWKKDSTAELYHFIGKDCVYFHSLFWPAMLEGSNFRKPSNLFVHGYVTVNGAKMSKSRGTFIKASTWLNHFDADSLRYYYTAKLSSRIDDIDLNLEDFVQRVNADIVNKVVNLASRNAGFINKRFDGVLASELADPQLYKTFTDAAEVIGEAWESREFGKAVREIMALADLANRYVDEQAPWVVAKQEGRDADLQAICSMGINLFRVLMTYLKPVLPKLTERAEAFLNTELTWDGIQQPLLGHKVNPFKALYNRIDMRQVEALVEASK
Source text: (§1) intrinsic fluorescence titration at equilibrium on MetRS M547 (His-tagged monomeric E. coli MetRS)

[2] = target: T2, MetRS M547 (His-tagged monomeric E. coli MetRS) (Escherichia coli, UniProt P00959, I298C/L14C)
T2 construct: gene metG; M547: C-terminally truncated monomeric fragment (about 547 residues), His-tagged, pET15blpa, expressed in E. coli BLR(DE3)
T2 sequence (P00959 2-548 L14C/I298C): T1 sequence (P00959 2-548 L14M/I298C) with M13C
Source text: as §1

[3] = target: T3, MetRS M547 (His-tagged monomeric E. coli MetRS) (Escherichia coli, UniProt P00959, I298C)
T3 construct: gene metG; M547: C-terminally truncated monomeric fragment (about 547 residues), His-tagged, pET15blpa, expressed in E. coli BLR(DE3)
T3 sequence (P00959 2-548 I298C): T1 sequence (P00959 2-548 L14M/I298C) with M13L
Source text: as §1

[4] = target: T4, MetRS M547 (His-tagged monomeric E. coli MetRS) (Escherichia coli, UniProt P00959, I298C/L14S)
T4 construct: gene metG; M547: C-terminally truncated monomeric fragment (about 547 residues), His-tagged, pET15blpa, expressed in E. coli BLR(DE3)
T4 sequence (P00959 2-548 L14S/I298C): T1 sequence (P00959 2-548 L14M/I298C) with M13S
Source text: as §1

[5] = target: T5, MetRS M547 (His-tagged monomeric E. coli MetRS) (Escherichia coli, UniProt P00959)
T5 construct: gene metG; M547: C-terminally truncated monomeric fragment (about 547 residues), His-tagged, pET15blpa, expressed in E. coli BLR(DE3)
T5 sequence (P00959 2-548): T1 sequence (P00959 2-548 L14M/I298C) with M13L, C297I
Source text: as §1

| Compound | Kd ([1]; read-out: Kd(α-Met)) | Kd ([2]; read-out: Kd(α-Met)) | Kd ([3]; read-out: Kd(α-Met)) | Kd ([4]; read-out: Kd(α-Met)) | Kd ([5]; read-out: Kd(α-Met)) | Kd ([1]; read-out: Kd(β-Met)) | Kd ([2]; read-out: Kd(β-Met)) | Kd ([3]; read-out: Kd(β-Met)) | Kd ([4]; read-out: Kd(β-Met)) | Kd ([5]; read-out: Kd(β-Met)) |
| --- | --- | --- | --- | --- | --- | --- | --- | --- | --- | --- |
| CSCC[C@H](N)C(=O)O [α-Met] | 160 µM | 170 µM | 190 µM | 170 µM | 50 µM | – | – | – | – | – |
| CSCC[C@H](N)CC(=O)O [β-Met] | – | – | – | – | – | 900 µM | 900 µM | 900 µM | 1000 µM | 1200 µM |
